Data: US3965109A, “Certain aryl amino pyridines” (priority 1971, dated 1976)

Columns and labels:
[1] = tested on: Venturia inaequalis (apple); assay: Fungicidal test against foliar disease G (foliage spray plus soil drench); type: in vivo; details: 100 ppm spray and drench; 21 days
Description: This Example illustrates the fungicidal properties of compounds used as active ingredients in the compositions of the invention. The compounds were tested against a wide variety of foliar fungal diseases of plants. In the test, a composition comprising an aqueous solution or suspension of the test compound was sprayed on to the foliage or uninfected plants; the soil in which the plants were growing was also drenched with the composition. The compositions used for spraying and drencing contained 100 parts per million (ppm.) of the test compound except where otherwise stated in the table of results below. After spraying and drenching, the plants were then exposed to infection with the diseases it was desired to control, along with control plants not treated with the compound. After a period of days, depending upon the particular disease, the extent of the disease was visually assessed, as a percentage of the disease established upon the control plants which had not been treated with the compound under test, according to the grading scheme below
In Table 2 below the names of the disease is given in the first column, and in the second column is given the time which elapsed between exposing the plants to infection and assessing the amount of disease.

[2] = tested on: Aphis fabae; assay: Pest toxicity test; type: in vivo; details: 0.1% by weight; broad bean; 2 days
[3] = tested on: Wild oat; assay: Selective herbicidal activity; type: in vivo, Avenua fatua; details: 28 days, scale 0 to 10 (complete kill)
Text: (§1) This Example illustrates the selective herbicidal activity of compounds No. 5 and 12 of Table 1. The compounds, formulated as in Example 5 were sprayed on to pots of soil previously sown with seeds of the plant species shown in Tables 13 and 14.

[4] = tested on: Megoura viceae; assay: Pest toxicity test; type: in vivo; details: 0.1% by weight; broad bean; 2 days
[5] = tested on: Pea; assay: Further herbicidal test, various rates; type: in vivo; details: scale 0 to 5 (complete kill)
[6] = tested on: Annual Nettle; assay: Selective herbicidal activity; type: in vivo, Urtica urens; details: 28 days, scale 0 to 10 (complete kill)
Text: as §1
Annual Nettle Urtica urens

[7] = tested on: Sugar beet; assay: Further herbicidal test, various rates; type: in vivo; details: scale 0 to 5 (complete kill)
[8] = tested on: Chickweed; assay: Selective herbicidal activity; type: in vivo, Stellaria media; details: 28 days, scale 0 to 10 (complete kill)
Text: as §1
Chickweed Stellaria media

[9] = tested on: White mustard; assay: Selective herbicidal activity; type: in vivo, Sinapis alba; details: 28 days, scale 0 to 10 (complete kill)
Text: as §1
White mustard Sinapis alba

[10] = tested on: Kale; assay: Further herbicidal test, various rates; type: in vivo; details: scale 0 to 5 (complete kill)
[11] = tested on: Wheat; assay: Selective herbicidal activity; type: in vivo; details: for Damage to plants: 28 days, scale 0 to 10 (complete kill)
Text: as §1
(§2) Table 14 gives the results for compound No. 12 of Table 1 The figures are assessments of damage to the plants 23 days after treatment, on a scale of 0 to 5 where 0 is no effect and 5 is complete kill

[12] = tested on: broadleaved plants; assay: Selective herbicidal activity; type: in vivo; details: Tables 13 and 14
Text: as §1, §2

[13] = tested on: Barley; assay: Selective herbicidal activity; type: in vivo; details: for Damage to plants: 28 days, scale 0 to 10 (complete kill)
Text: as §1, §2

[14] = tested on: Onion; assay: Further herbicidal test, various rates; type: in vivo; details: scale 0 to 5 (complete kill)
[15] = tested on: Wheat; assay: Herbicidal test, pre- and post-emergence; type: in vivo; details: 10 lb/acre (11.2 kg/ha); scale 0 (no effect) to 3 (complete kill)
[16] = tested on: Redshank; assay: Selective herbicidal activity; type: in vivo, Polygonum persicaria; details: 28 days, scale 0 to 10 (complete kill)
Text: as §1
Redshank Polygonum persicaria

[17] = tested on: Uncinula necator (vine); assay: Fungicidal test against foliar disease D (foliage spray plus soil drench); type: in vivo; details: 100 ppm spray and drench; 10 days
[18] = tested on: Tomato; assay: Herbicidal test, pre- and post-emergence; type: in vivo; details: 10 lb/acre (11.2 kg/ha); scale 0 (no effect) to 3 (complete kill)
[19] = tested on: Groundsel; assay: Selective herbicidal activity; type: in vivo, Senecio vulgaris; details: 28 days, scale 0 to 10 (complete kill)
Text: as §1
Groundsel Senecio vulgaris

[20] = tested on: Piricularia oryzae (rice); type: in vivo; details: 100 ppm spray and drench; 7 days
[21] = tested on: Musca domestica (houseflies); assay: Pest toxicity test, contact test; type: in vivo; details: 0.1% by weight; milk/sugar; 2 days; flies sprayed directly
[22] = tested on: Mayweed; assay: Selective herbicidal activity; type: in vivo, Tripleurospermum maritimum ssp. inodorum; details: 28 days, scale 0 to 10 (complete kill)
Text: as §1
Mayweed Tripleurospermum maritimum

[23] = tested on: Maize; assay: Herbicidal test, pre- and post-emergence; type: in vivo; details: 10 lb/acre (11.2 kg/ha); scale 0 (no effect) to 3 (complete kill)
[24] = tested on: Plasmopara viticola (vine); assay: Fungicidal test against foliar disease C (foliage spray plus soil drench); type: in vivo; details: 100 ppm spray and drench; 10 days
[25] = tested on: Phaedon cochleariae (mustard beetles); assay: Pest toxicity test; type: in vivo; details: 0.1% by weight; mustard/paper; 2 days
[26] = tested on: Puccinia recondita (wheat); assay: Fungicidal test against foliar disease A (foliage spray plus soil drench); type: in vivo; details: 100 ppm spray and drench; 10 days
[27] = tested on: Tetranychus telarius (red spider mites, adults); assay: Pest toxicity test; type: in vivo; details: 0.1% by weight; French bean; 3 days
[28] = tested on: Speedwell; assay: Selective herbicidal activity; type: in vivo, Veronica spp; details: 28 days, scale 0 to 10 (complete kill)
Text: as §1

[29] = tested on: Plutella maculipennis (diamond back moth larvae); assay: Pest toxicity test; type: in vivo; details: 0.1% by weight; mustard/paper; 2 days
[30] = tested on: Barley; assay: Further herbicidal test, various rates; type: in vivo; details: scale 0 to 5 (complete kill)
[31] = tested on: Aedes aegypti (mosquito larvae); assay: Pest toxicity test; type: in vivo
[32] = tested on: Oat; assay: Further herbicidal test, various rates; type: in vivo; details: scale 0 to 5 (complete kill)
[33] = tested on: Tetranychus telarius (red spider mites, eggs); assay: Pest toxicity test; type: in vivo; details: 0.1% by weight; French bean; 3 days
[34] = tested on: Pieris brassicae (cabbage white caterpillars); assay: Pest toxicity test; type: in vivo; details: 0.1% by weight, 2 days
[35] = tested on: Carrot; assay: Further herbicidal test, various rates; type: in vivo; details: scale 0 to 5 (complete kill)
[36] = tested on: Lettuce; assay: Herbicidal test, pre- and post-emergence; type: in vivo; details: 10 lb/acre (11.2 kg/ha); scale 0 (no effect) to 3 (complete kill)
[37] = tested on: Rice; assay: Further herbicidal test, various rates; type: in vivo; details: scale 0 to 5 (complete kill)
[38] = tested on: Aedes aegypti (mosquito adults); assay: Pest toxicity test; type: in vivo; details: 0.01% by weight; plywood; 1 day

## O=[N+]([O-])c1ccc(Nc2c(Cl)c(F)nc(F)c2Cl)c(C(F)(F)F)c1 [Compound 5]
[1]
  Amount of disease grading, disease G: 3 (0 to 5)
[2]
  Mortality grading (kill): 3 (3 represents over 90% kill)
[3]; 0.5 kg/hectare
  Damage to plants: 0
[3]; 4 kg/hectare
  Damage to plants: 5.5
[4]
  Mortality grading (kill): 3 (3 represents over 90% kill)
[5]; 1 lb/acre
  Damage to plants, post-emergence: 4
  Damage to plants, pre-emergence: 0
[5]; 5 lb/acre
  Damage to plants, post-emergence: 4
  Damage to plants, pre-emergence: 3
[6]; 0.5 kg/hectare
  Damage to plants: 10
[6]; 4 kg/hectare
  Damage to plants: 10
[7]; 1 lb/acre
  Damage to plants, post-emergence: 5
  Damage to plants, pre-emergence: 0
[7]; 5 lb/acre
  Damage to plants, post-emergence: 5
  Damage to plants, pre-emergence: 5
[8]; 0.5 kg/hectare
  Damage to plants: 8
[8]; 4 kg/hectare
  Damage to plants: 10
[9]; 0.5 kg/hectare
  Damage to plants: 0
[9]; 4 kg/hectare
  Damage to plants: 8.5
[10]; 1 lb/acre
  Damage to plants, post-emergence: 5
  Damage to plants, pre-emergence: 0
[10]; 5 lb/acre
  Damage to plants, post-emergence: 5
  Damage to plants, pre-emergence: 5
[11]; 0.5 kg/hectare
  Damage to plants: 0
[11]; 4 kg/hectare
  Damage to plants: 0
[11]; Tables 13 and 14
  damage to wheat (in words): undamaged
[12]
  damage to the broadleaved plants (in words): caused damage to the broadleaved plants
[13]; 0.5 kg/hectare
  Damage to plants: 0
[13]; 4 kg/hectare
  Damage to plants: 0
[13]; Tables 13 and 14
  damage to barley (in words): undamaged
[14]; 1 lb/acre
  Damage to plants, post-emergence: 3
  Damage to plants, pre-emergence: 0
[14]; 5 lb/acre
  Damage to plants, post-emergence: 5
  Damage to plants, pre-emergence: 5
[15]
  Damage to plants, post-emergence: 0
  Damage to plants, pre-emergence: 2
[16]; 0.5 kg/hectare
  Damage to plants: 5
[16]; 4 kg/hectare
  Damage to plants: 10
[17]
  Amount of disease grading, disease D: 3 (0 to 5)
[18]
  Damage to plants, post-emergence: 3
  Damage to plants, pre-emergence: 3
[19]; 0.5 kg/hectare
  Damage to plants: 4
[19]; 4 kg/hectare
  Damage to plants: 10
[20]
  Amount of disease grading, disease E: 0 (61 to 100)
[21]
  Mortality grading (kill), contact test: 0 (O represents less than 30% kill)
[22]; 0.5 kg/hectare
  Damage to plants: 6
[22]; 4 kg/hectare
  Damage to plants: 10
[23]
  Damage to plants, post-emergence: 0
  Damage to plants, pre-emergence: 0
[24]
  Amount of disease grading, disease C: 3 (0 to 5)
[25]
  Mortality grading (kill): 0 (O represents less than 30% kill)
[26]
  Amount of disease grading, disease A: 3 (0 to 5)
[27]
  Mortality grading (kill): 3 (3 represents over 90% kill)
[28]; 0.5 kg/hectare
  Damage to plants: 10
[28]; 4 kg/hectare
  Damage to plants: 10
[29]
  Mortality grading (kill): 1 (1 represents 30 - 49% kill)
[30]; 1 lb/acre
  Damage to plants, post-emergence: 3
  Damage to plants, pre-emergence: 5
[30]; 5 lb/acre
  Damage to plants, post-emergence: 3
  Damage to plants, pre-emergence: 5
[31]; 0.01% by weight, water, 1 day
  Mortality grading (kill): 0 (O represents less than 30% kill)
[31]; in vivo
  abnormal growth effects in larva of mosquitos: abnormal growth effects
[32]; 1 lb/acre
  Damage to plants, post-emergence: 3
  Damage to plants, pre-emergence: 2
[32]; 5 lb/acre
  Damage to plants, post-emergence: 4
  Damage to plants, pre-emergence: 5
[33]
  Mortality grading (kill): 3 (3 represents over 90% kill)
[34]
  Mortality grading (kill): 3 (3 represents over 90% kill)
[35]; 1 lb/acre
  Damage to plants, post-emergence: 5
  Damage to plants, pre-emergence: 2
[35]; 5 lb/acre
  Damage to plants, post-emergence: 5
  Damage to plants, pre-emergence: 5
[36]
  Damage to plants, post-emergence: 3
  Damage to plants, pre-emergence: 3
[37]; 1 lb/acre
  Damage to plants, post-emergence: 0
  Damage to plants, pre-emergence: 3
[37]; 5 lb/acre
  Damage to plants, post-emergence: 0
  Damage to plants, pre-emergence: 5
[38]
  Mortality grading (kill): 0 (O represents less than 30% kill)
